Reference: patent US20070066580A1, “Novel aldosterone antagonists and uses thereof” (Recordati Ireland Limited, priority 2005, published 2007)

Biological target: T1, ligand binding domain of the human mineralocorticoid receptor (hMR LBD) (Homo sapiens, UniProt P08235)
T1 construct: made in house; host or cells: Sf9 insect cells (baculovirus, pFastBac)
T1 sequence (P08235 729-984): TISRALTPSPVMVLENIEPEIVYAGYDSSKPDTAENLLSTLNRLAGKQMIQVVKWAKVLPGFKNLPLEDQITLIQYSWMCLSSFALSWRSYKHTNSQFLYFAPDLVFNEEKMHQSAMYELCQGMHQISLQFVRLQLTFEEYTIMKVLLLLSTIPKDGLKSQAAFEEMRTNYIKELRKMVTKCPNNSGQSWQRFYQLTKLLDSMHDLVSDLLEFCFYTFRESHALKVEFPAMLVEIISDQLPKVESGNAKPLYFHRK
Assay: Mineralocorticoid receptor (MR) in vitro competitive binding assay, [3H]aldosterone displacement
Conditions: IR^TOTAL = sum of IR^AR/MR, IR^ER/MR, IR^GR/MR, IR^PR/MR
Experimental: Mineralocorticoid receptor (MR) binding assay: Spodoptera furgiperda (Sf9) insect cells (ATCC accession number CRL-1711) were maintained in culture in EX-CELL™ 420 serum free medium (JRH Biosciences, Inc.) at 27° C.
A recombinant baculovirus containing nucleotide sequences encoding the ligand binding domain of the human mineralocorticoid receptor (hMR) cloned into the pFastBac™ vector was generated using the Bac-to-Bac® Baculovirus Expression System Kit (Invitrogen) following the manufacturer's instructions. This recombinant baculovirus contains nucleotides 2401 through 3168 (SEQ ID NO: 13) of hMR, providing for expression of the ligand binding domain (LBD), amino acid residues 729-984 (SEQ ID NO: 14), of hMR (hMR LBD). Cultured Sf9 insect cells were transfected with this recombinant baculovirus following the manufacturer's instructions.
For the binding assay, a crude lysate of the hMR LBD-expressing insect cells was prepared. The crude lysate was diluted 12.5-fold with binding buffer (20 mM Tris-HCl pH 7.4, 1 mM EDTA, 1 mM dithiothreitol, 20 mM sodium tungstate, 50 mM KCl and 10% glycerol).
For the negative control sample, the diluted lysate was incubated with a 10 nM final concentration of the radioligand [1,2,6,7-^3H] aldosterone (Amersham Biosciences, catalogue # 434) for 3.5 h at 4° C. For test compounds and the positive control sample, the diluted lysate was incubated with various concentrations of test compound or with a 20 μM final concentration of spironolactone (Sigma, S-3378) as a reference compound for 45 min on ice, and was then incubated with a 10 nM final concentration of [1,2,6,7-^3H] aldosterone for 3.5 h at 4° C.
Using a CellHarvester (PerkinElmer, formerly Packard Biosciences), receptor/ligand complexes were retained on 96-well GF/B filters (PerkinElmer, formerly Packard Biosciences) while free radioligand passed through the filters. Scintillation counting of GF/B filter plates was performed using a TopCount NXT (PerkinElmer, formerly Packard Biosciences) to quantitate the amount of [1,2,6,7-^3H] aldosterone bound to the hMR LBD.
The IC50 of a test compound was determined from the concentration of test compound giving half-maximal displacement as obtained by nonlinear least-squares curve fitting to a one-site binding sigmoidal model using Prism 3.0 (Graph Pad Software, Inc., San Diego, US). The calculated IC50 values represent the average values calculated from the results of 1-3 experiments carried out in duplicate.
IC50 and inhibitory ratio calculations: To provide a measure of the potency of each test compound as an antagonist of MR, the IC50 of each test compound (IC50^Test) for ligand binding to MR and the IC50 of the known MR antagonists eplerenone (IC50^Ep) and spironolactone (IC50^Sp) for ligand binding to MR were used to calculate an IC50 ratio (RIC50) according to the following equations: RIC50^Ep/Test=IC50^Ep/IC50^Test and RIC50^Sp/Test=IC50^Sp/IC50^Test.
These individual inhibitory ratios were used to calculate a total inhibitory ratio (IR^TOTAL) according to the following equation: IR^TOTAL=IR^AR/MR+IR^ER/MR+IR^GR/MR+IR^PR/MR. B. Results and Discussion

Structure (SMILES)	IR^TOTAL compared with the IR^TOTAL for eplerenone	IR^TOTAL compared with the IR^TOTAL for spironolactone
C[C@]12CCC(=O)C=C1C[C@@H](C#N)C1C2=CC[C@@]2(C)C1[C@@H]1C[C@@H]1[C@@]21COC(=O)O1 (some centres unmarked) [Example 76]	at least an order of magnitude greater than the IR^TOTAL for eplerenone	at least an order of magnitude greater than the IR^TOTAL for spironolactone
CC(=O)S[C@@H]1CC2=CC(=O)CC[C@]2(C)[C@@]23O[C@@H]2C[C@@]2(C)C(CC[C@@]24COC(=O)O4)C13 (some centres unmarked) [Example 46]	at least an order of magnitude greater than the IR^TOTAL for eplerenone	greater than the IR^TOTAL for spironolactone
CO/N=C/[C@@H]1CC2=CC(=O)CC[C@]2(C)[C@@]23O[C@@H]2C[C@@]2(C)C(CC[C@@]24CCC(=O)O4)C13 (some centres unmarked) [Example 52]		greater than the IR^TOTAL for spironolactone
CC(=O)S[C@@H]1CC2=CC(=O)CC[C@]2(C)C2=CC[C@@]3(C)C(CC[C@@]34CCC(=O)O4)C21 (some centres unmarked) [Example 11]	at least an order of magnitude greater than the IR^TOTAL for eplerenone	greater than the IR^TOTAL for spironolactone
CCC[C@@H]1CC2=CC(=O)CC[C@]2(C)C2=CC[C@@]3(C)C(C21)[C@@H]1C[C@@H]1[C@@]31CCC(=O)O1 (some centres unmarked) [Example 70]	at least an order of magnitude greater than the IR^TOTAL for eplerenone	at least an order of magnitude greater than the IR^TOTAL for spironolactone
C[C@]12CCC(=O)C=C1CCC1C2=CC[C@@]2(C)C1[C@@H]1C[C@@H]1[C@@]21COC(=O)O1 (some centres unmarked) [Example 75]	at least an order of magnitude greater than the IR^TOTAL for eplerenone	at least an order of magnitude greater than the IR^TOTAL for spironolactone

Biological target: T2, GAL4 DBD-hMR LBD fusion protein (Homo sapiens, UniProt P08235)
T2 construct: expressed in transfected cells; host or cells: CV-1 cells (African green monkey kidney), transient co-transfection with pCMX-GAL4-based vector and Galp3TKLuc reporter
T2 sequence (P08235 with tags, fused parts or gaps limits assumed): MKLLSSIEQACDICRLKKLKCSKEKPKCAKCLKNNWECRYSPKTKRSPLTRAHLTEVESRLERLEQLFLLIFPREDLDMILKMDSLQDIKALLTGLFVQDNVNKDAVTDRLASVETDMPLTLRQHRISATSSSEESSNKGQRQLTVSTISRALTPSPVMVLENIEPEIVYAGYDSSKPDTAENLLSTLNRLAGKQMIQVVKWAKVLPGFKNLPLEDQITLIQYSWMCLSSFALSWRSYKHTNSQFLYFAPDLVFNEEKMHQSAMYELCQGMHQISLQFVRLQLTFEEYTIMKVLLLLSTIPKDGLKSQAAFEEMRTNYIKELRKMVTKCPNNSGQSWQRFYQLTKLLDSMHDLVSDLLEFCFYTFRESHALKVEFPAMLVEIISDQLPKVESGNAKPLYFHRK
Assay: Cell-based luciferase assay, agonist mode (CV-1 cells)
Conditions: 10 μM of compound
From the text: GAL4 DBD-hMR LBD fusion protein expression vector: A pCMX-GAL4-based vector was used for the expression of a fusion protein composed of the amino acids 1-147 of the DNA binding domain of Saccharomyces cerevisiae GAL4 (GAL4 DBD) (SEQ ID NO: 16) and amino acid residues 729-984 of the ligand binding domain of human mineralocorticoid receptor (hMR LBD) (SEQ ID NO: 14). The expression vector contained an expression cassette of the nucleotide sequence for the GAL4 DBD (See SEQ ID NO: 19) ligated to nucleotides 2401 through 3168 of the human mineralocorticoid (hMR) receptor (SEQ ID NO: 13).
In vitro cell culture: CV-1 cells (African green monkey kidney cell line, ATCC accession number CCL-70) were maintained in culture in 90% DMEM medium supplemented by 9% FCS and 1% Penicillin-Streptomycin-L-Glutamine at 37° C. under 8.5% CO2.
These cells were transiently co-transfected with the GAL4 DBD-hMR LBD fusion protein expression vector and the Galp3TKLuc reporter gene vector using the FuGENE 6 Transfection Reagent (Roche) according to the manufacturer's instructions.
Agonist assay: As a positive control, aldosterone (Acros Organics, catalogue # 215360050) was used at a concentration of 100 nM. The negative control sample was 90% DMEM medium supplemented by 9% charcoal-treated FCS and 1% Penicillin-Streptomycin-L-Glutamine containing 0.2% DMSO plus 0.02% ethanol. Positive control, negative control, or 10 μM final concentration of test compound was added to the cells and incubated for 24 hours at 37° C. under 8.5% CO2 before the Luciferase substrate (Promega, catalogue number #E2620) was added. After an incubation period of 5 min at RT, luminescence signals were read on a microplate reader (Molecular Devices/LJL Biosystems). Negative and positive controls were defined as 0% and 100% agonism, respectively. The agonistic potency of test compounds is given in % and was normalized to the positive and negative controls.

Structure (SMILES)	potency for activation of MR relative to aldosterone
C[C@@H]1CC2=CC(=O)CC[C@]2(C)C2=CC[C@@]3(C)C(CC[C@@]34CCC(=O)O4)C21 (some centres unmarked) [Example 26]	at least three orders of magnitude less potent than aldosterone
C[C@]12CCC(=O)C=C1C[C@@H](SCC(F)(F)F)C1C2=CC[C@@]2(C)C1CC[C@@]21CCC(=O)O1 (some centres unmarked) [Example 18]	at least three orders of magnitude less potent than aldosterone
CCC[C@@H]1CC2=CC(=O)CC[C@]2(C)[C@@]23O[C@@H]2C[C@@]2(C)C(CC[C@@]24CCC(=O)O4)C13 (some centres unmarked) [Example 10]	at least three orders of magnitude less potent than aldosterone
CO/N=C/[C@@H]1CC2=CC(=O)CC[C@]2(C)[C@@]23O[C@@H]2C[C@@]2(C)C(CC[C@@]24CCC(=O)O4)C13 (some centres unmarked) [Example 52]	at least three orders of magnitude less potent than aldosterone
CCCS[C@@H]1CC2=CC(=O)CC[C@]2(C)[C@@]23O[C@@H]2C[C@@]2(C)C(CC[C@@]24CCC(=O)O4)C13 (some centres unmarked) [Example 12]	at least three orders of magnitude less potent than aldosterone
C[C@]12CCC(=O)C=C1CCC1C3CC[C@@]4(COC(=O)O4)[C@@]3(C)C[C@H]3O[C@@]132 (some centres unmarked) [Example 41]	at least three orders of magnitude less potent than aldosterone
CCC[C@@H]1CC2=CC(=O)CC[C@]2(C)C2=CC[C@@]3(C)C(C21)[C@@H]1C[C@@H]1[C@@]31CCC(=O)O1 (some centres unmarked) [Example 70]	at least three orders of magnitude less potent than aldosterone
CCC[C@@H]1CC2=CC(=O)CC[C@]2(C)C2=CC[C@@]3(C)C(CC[C@@]34CCC(=O)O4)C21 (some centres unmarked) [Example 9]	at least three orders of magnitude less potent than aldosterone
CCC[C@@H]1CC2=CC(=O)CC[C@]2(C)[C@@]23O[C@@H]2C[C@@]2(C)C(C13)[C@@H]1C[C@@H]1[C@@]21CCC(=O)O1 (some centres unmarked) [Example 71]	at least three orders of magnitude less potent than aldosterone
C=CCC[C@@H]1CC2=CC(=O)CC[C@]2(C)C2=CC[C@@]3(C)C(CC[C@@]34CCC(=O)O4)C21 (some centres unmarked) [Example 8]	at least three orders of magnitude less potent than aldosterone
CO/N=C/[C@@H]1CC2=CC(=O)CC[C@]2(C)C2=CC[C@@]3(C)C(CC[C@@]34CCC(=O)O4)C21 (some centres unmarked) [Example 34]	at least three orders of magnitude less potent than aldosterone

Biological target: T3, MR (Homo sapiens, UniProt P08235)
T3 sequence (P08235 1-984): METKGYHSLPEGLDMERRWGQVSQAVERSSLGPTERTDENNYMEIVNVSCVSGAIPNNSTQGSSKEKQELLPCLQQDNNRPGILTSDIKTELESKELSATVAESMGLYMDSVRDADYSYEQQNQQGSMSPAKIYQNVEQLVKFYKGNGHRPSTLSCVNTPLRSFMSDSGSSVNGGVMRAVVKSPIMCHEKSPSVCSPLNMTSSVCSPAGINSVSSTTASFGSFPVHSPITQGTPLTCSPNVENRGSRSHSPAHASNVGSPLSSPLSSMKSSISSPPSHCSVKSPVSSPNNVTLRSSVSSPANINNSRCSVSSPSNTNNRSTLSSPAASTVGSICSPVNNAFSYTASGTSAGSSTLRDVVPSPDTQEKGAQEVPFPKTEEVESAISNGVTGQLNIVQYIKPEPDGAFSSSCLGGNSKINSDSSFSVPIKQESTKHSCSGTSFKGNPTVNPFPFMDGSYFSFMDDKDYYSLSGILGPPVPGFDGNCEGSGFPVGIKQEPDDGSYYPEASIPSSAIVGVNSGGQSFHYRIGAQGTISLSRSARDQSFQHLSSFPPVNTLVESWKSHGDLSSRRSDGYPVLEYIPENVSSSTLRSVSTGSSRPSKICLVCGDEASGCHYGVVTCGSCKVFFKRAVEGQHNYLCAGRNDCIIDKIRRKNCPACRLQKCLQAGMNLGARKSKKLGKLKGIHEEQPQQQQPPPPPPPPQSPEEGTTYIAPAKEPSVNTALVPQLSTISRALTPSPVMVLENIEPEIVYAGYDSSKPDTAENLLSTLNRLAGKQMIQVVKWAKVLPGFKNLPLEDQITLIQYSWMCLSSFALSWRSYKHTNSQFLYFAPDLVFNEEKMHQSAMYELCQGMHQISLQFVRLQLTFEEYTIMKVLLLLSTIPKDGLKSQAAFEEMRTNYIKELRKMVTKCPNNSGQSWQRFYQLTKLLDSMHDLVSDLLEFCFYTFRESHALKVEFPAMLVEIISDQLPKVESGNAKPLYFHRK
Assay: not given
Conditions: cited from earlier work

Structure (SMILES)	anti-MR effectiveness compared with spironolactone
CC(=O)S[C@@H]1CC2=CC(=O)C=C[C@]2(C)[C@H]2CC[C@@]3(C)[C@@H]([C@@H]4C[C@@H]4[C@@]34CCC(=O)O4)[C@H]12 [Mespirenone]	about three times higher
